The source of these data is patent US5665721A, “Heterocyclic substituted cyclopentane compounds” (Abbott Laboratories, priority 1995, dated 1997).

Molecules are shown by their SMILES.

adenosine kinase, sequence (P55263 whole entry, species assumed): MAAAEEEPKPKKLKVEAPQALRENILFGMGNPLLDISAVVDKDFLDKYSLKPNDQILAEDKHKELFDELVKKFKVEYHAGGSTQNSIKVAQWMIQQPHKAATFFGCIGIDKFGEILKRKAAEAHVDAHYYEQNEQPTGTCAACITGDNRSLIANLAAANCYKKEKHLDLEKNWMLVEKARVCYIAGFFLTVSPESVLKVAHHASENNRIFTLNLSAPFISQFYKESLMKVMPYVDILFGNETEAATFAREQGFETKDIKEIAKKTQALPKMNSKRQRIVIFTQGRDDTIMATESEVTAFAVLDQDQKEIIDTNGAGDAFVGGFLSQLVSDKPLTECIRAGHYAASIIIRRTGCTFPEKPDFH

One assay concerns the target adenosine kinase (Homo sapiens, UniProt P55263). The experiment in a line: In vitro inhibition of adenosine kinase activity. The class given is biochemical. The settings on record: Table 1, in vitro. The text has this:
The adenosine kinase to be inhibited can be located in vitro, in situ or in vivo. Where the adenosine kinase is located in vitro, adenosine kinase is contacted with the inhibitor compound, typically by adding the compound to an aqueous solution containing the enzyme, radiolabeled substrate adenosine, magnesium chloride and ATP. The enzyme can exist in intact cells or in isolated subcellular fractions containing the enzyme. The enzyme is then maintained in the presence of the inhibitor for a period of time and under suitable physiological conditions. Means for determining maintained times are well known in the art and depend inter alia on the concentrations of enzyme and the physiological conditions. Suitable physiological conditions are those necessary to maintain adenosine kinase viability and include temperature, acidity, tonicity and the like. Inhibition of adenosine kinase can be performed, by example, according to standard procedures well known in the art (Yamada et at., Comp. Biochem. Physiol. 1982, 71B: 367-372).
In vitro adenosine kinase activity can be measured using any of the standard procedures well known in the art. By way of example, cells containing adenosine kinase, such as IMR-32 human neuroblastoma cells, are cultured in the presence and absence of an inhibitor. Inhibition is measured as the ability to inhibit phosphorylation of endogenous or externally applied ^14 C-adenosine by these cells. The cells can be intact or broken. The specificity of adenosine kinase inhibitory activity is determined by studying the effects of inhibitors on adenosine A1 and A2a receptor binding, adenosine deaminase activity and adenosine transport.
Numerous inhibitor compounds of the present invention were tested in vitro and found to inhibit adenosine kinase activity. The results of some representative studies are shown below in Tables 1 and 2.
In the case of `O[C@@H]1[C@H](O)[C@@H](O)C[C@H]1n1cc(Cl)c2c(Cl)ncnc21` [drawing 13 (R5=Cl, R6=Cl), N7-((1'R,2'S,3'R,4'S)-2',3',4'-trihydroxycyclopentyl)-4,5-dichloro-pyrrolopyrimidine], the IC50 (commonly the midpoint of a concentration-inhibition curve) turned out to be 90 nM. This lies in the double-digit nanomolar range.

Consider `O[C@@H]1[C@H](O)[C@@H](O)C[C@H]1n1cc(I)c2c(Cl)ncnc21` [drawing 13 (R5=Cl, R6=I), N7-((1'R,2'S,3'R,4'S)-2',3',4'-trihydroxycyclopentyl)-4-chloro-5-iodo-pyrrolopyrimidine], for which the IC50 turned out to be 10 nM. This IC50 lies about 9-fold lower than the previous one.

Compound `O[C@@H]1[C@H](O)[C@@H](O)C[C@H]1n1cc(-c2ccccc2)c2c(Cl)ncnc21` [drawing 13 (R5=Cl, R6=Ph), N7-((1'R,2'S,3'R,4'S)-2',3',4'-trihydroxycyclopentyl)-4-chloro-5-phenyl-pyrrolopyrimidine] registered an IC50 of 45 nM.

For the compound `O[C@@H]1[C@H](O)[C@@H](O)C[C@H]1n1cc(C#Cc2ccccc2)c2c(Cl)ncnc21` [drawing 13 (R5=Cl, R6=PhCC), N7-((1'R,2'S,3'R,4'S)-2',3',4'-trihydroxycyclopentyl)-4-chloro-5-phenylacetylenyl-pyrrolopyrimidine], the IC50 came to 100 nM.

Take `Nc1ncnc2c1c(I)cn2[C@@H]1C[C@H](O)[C@@H](O)[C@H]1O` [drawing 13 (R5=NH2, R6=I), N7-((1'R,2'S,3'R,4'S)-2',3',4'-trihydroxycyclopentyl)-4-amino-5-iodo-pyrrolopyrimidine]: the IC50 came out at 13 nM.

In turn, `Nc1ncnc2c1c(-c1ccccc1)cn2[C@@H]1C[C@H](O)[C@@H](O)[C@H]1O` [drawing 13 (R5=NH2, R6=Ph), N7-((1'R,2'S,3'R,4'S)-2',3',4'-trihydroxycyclopentyl)-4-amino-5-phenyl-pyrrolopyrimidine] gave an IC50 of 200 nM.

Take `Nc1ncnc2c1c(C#Cc1ccccc1)cn2[C@@H]1C[C@H](O)[C@@H](O)[C@H]1O` [drawing 13 (R5=NH2, R6=PhCC), N7-((1'R,2'S,3'R,4'S)-2',3',4'-trihydroxycyclopentyl)-4-amino-5-phenylacetylenyl-pyrrolopyrimidine]: the IC50 is 230 nM. The IC50 values of the last two compounds are within 1.5-fold of each other.

The compound `Nc1ncnc2c1c(CCc1ccccc1)cn2[C@@H]1C[C@H](O)[C@@H](O)[C@H]1O` [drawing 13 (R5=NH2, R6=PhCH2CH2), N7-((1'R,2'S,3'R,4'S)-2',3',4'-trihydroxycyclopentyl)-4-amino-5-((2phenyl)ethyl)-pyrrolopyrimidine] displayed an IC50 of 300 nM.

`O[C@@H]1[C@H](O)[C@@H](O)C[C@H]1n1cc(I)c2c(Nc3ccccc3)ncnc21` [drawing 13 (R5=NHPh, R6=I), N7-((1'R,2'S,3'R,4'S)-2',3',4'-trihydroxycyclopentyl)-4-(phenyl)amino-5-iodo-pyrrolopyrimidine] yielded an IC50 of 100 nM.

On to `O[C@@H]1[C@H](O)[C@@H](O)C[C@H]1n1cc(-c2ccccc2)c2c(Nc3ccccc3)ncnc21` [drawing 13 (R5=NHPh, R6=Ph), N7-((1'R,2'S,3'R,4'S)-2',3',4'-trihydroxycyclopentyl)-4-(phenyl)amino-5-phenyl-pyrrolopyrimidine], for which the IC50 was 3 nM.

As to `O[C@@H]1[C@H](O)[C@@H](O)C[C@H]1n1cc(C#Cc2ccccc2)c2c(C#Cc3ccccc3)ncnc21` [drawing 13 (R5=PhCC, R6=PhCC), N7-((1'R,2'S,3'R,4'S)-2',3',4'-trihydroxycyclopentyl)-4,5-bis-phenylacetylenyl-pyrrolopyrimidine], half-maximal inhibition (IC50) required 15 nM.

In the case of `CN(C)[C@H]1C[C@@H](n2cc(I)c3c(Cl)ncnc32)[C@H](O)[C@@H]1O` [drawing 14 (R4=(CH3)2N, R5=Cl, R6=I), N7-((1'R,2'S,3'R,4'S)-2',3'-dihydroxy-4'-(dimethyl)amino-cyclopentyl)-4-chloro-5-iodo-pyrrolopyrimidine], the IC50 came out at 20 nM.

The same assay, now with this note: Table 1, in vitro, single structure.
`N[C@@H]1C=C[C@H](n2cc(I)c3c(Cl)ncnc32)C1` had an IC50 of 2.5 nM. In other words, the single-digit nanomolar range.

The same assay, now with this note: Table 2, in vitro.
The compound `O=C(N[C@H]1C[C@@H](n2cc(I)c3c(Cl)ncnc32)[C@H](O)[C@@H]1O)c1cccnc1` yielded an IC50 of 5 nM.
